Several values for one entry are separate records, joined by “and”; a condition that tells them apart may be missing. Equal values may be shown once. Entries after “also recorded” stand apart in the source; their conditions may differ.
Experiments:
3T3-L1 adipocytes [1] = assay: adipocyte death / toxicity to adipocytes; conditions: 30 μg/ml, matured 3T3-L1 adipocytes, 24 hours
3T3-L1 adipocytes [2] = assay: glucose consumption (remaining glucose) in culture medium of 3T3-L1 adipocytes; assay type: cell-based; conditions: for remaining glucose concentration in culture medium after 24 hours: culture medium of 3T3-L1 adipocytes after 24 hours, means ± SD, N = 3; for glucose absorption activity of adipocytes 3T3-L1 (anti-hyperglycemic ability): FIG. 1, medium glucose 300 mg/dl, remaining glucose after 24 hours
Experimental: After precursor adipocytes 3T3-L1 were induced as the matured adipocytes, culture medium with glucose (concentration of 300 mg/dl) and drugs were added, and the concentration of the remaining glucose in the culture medium were measured after 24 hours.
Adipose tissues are major sites for postprandial glucose uptake. Therefore, in vitro anti-diabetic screening model based on measuring glucose consumption after 24 hours in culture medium of 3T3-L1 adipocytes was developed. […] Accordingly, 60 chalcone derivatives with and without substitutions on A-ring were examined in our developed model. […] Structure-activity relationship (SAR) analyses data are also determined.

C57BL/6 mice [3] = assay: fasting blood glucose level of HF diet mice; assay type: in vivo; conditions: oral 6.75 mg/kg/day, 7 weeks, FIG. 3(a)
Excerpt: (§1) Please refer to FIG. 2, C57BL/6 mice were grouped as four groups. (a) “Control” group (normal healthy animal group): the mice were fed with normal feed. (b) “High-fat (HF) diet” group (unhealthy negative control group): the mice were fed with high-fat-percentage feed (at least 40% fat) for a long-term period for inducing obesity and metabolic syndromes. (c) “HF diet+pioglitazone” group (clinical administration control group): the mice were fed with high-fat-percentage feed (at least 40% fat) for a long-term period for inducing obesity and metabolic syndromes and simultaneously administered with the clinically anti-diabetes TZD, pioglitazone (oral dosage: 6.75 mg/kg/day). […] The number of mice in the groups (a) to (d) were 5, 5, 6 and 13 respectively.
(§2) The numbers of mice in Experiment 4 were the same as in Experiment 3, and mice were divided as four groups, “control”, “HF diet”, “HF diet+pioglitazone” and “HF diet+compound 12” groups.

C57BL/6 mice [4] = assay: oral glucose tolerance test (OGTT) in HF diet mice; assay type: in vivo; conditions: 7 weeks
Experimental: as §2
(§3) The method and conditions for performing Experiment 7 were similar to those in Experiments 3 and 4, wherein C57BL/6 mice were grouped as five groups, (a) “Control” group (n=6), (b) “HF diet” group (n=7); (c) “HF diet+pioglitazone” group (oral dosage: 6.75 mg/kg/day pioglitazone, n=8); (d) “HF diet+compound 26×1” group: the mice were fed with high-fat-percentage feed (at least 40% fat) for a long-term period for inducing obesity and metabolic syndromes and simultaneously administered with compound 26 (oral dosage: 6.75 mg/kg/day, n=11); and (e) “HF diet+compound 26×5” group (oral dosage: 33.75 mg/kg/day compound 26, n=12).

C57BL/6 mice [5] = assay: body weight gain of high-fat diet induced obesity mice; assay type: in vivo; conditions: HF diet C57BL/6 mice
Excerpt: as §1, §3

3T3-L1 adipocytes [6] = assay: lipid droplet formation in 3T3-L1 adipocytes (Oil-Red O staining); assay type: cell-based; conditions: insulin 3.2×10^−7 M, RSZ, PIO, chalcone derivatives 30 μg/ml, DMEM 25 mM D-glucose, 4 days
Experimental: After two days of differentiation, 3T3-L1 cells were treated without (control) or with insulin (3.2×10^−7 M), RSZ (30 μg/ml), PIO (30 μg/ml), and chalcone derivatives (30 μg/ml) in DMEM containing 25 mM D-glucose. After 4 days, lipid droplets were observed by Oil-Red O staining (data not shown).

Row | Compound | adipocyte death / toxicity to adipocytes (3T3-L1 adipocytes [1]) | remaining glucose concentration in culture medium after 24 hours (3T3-L1 adipocytes [2]; 30 μg/ml, control 310 ± 4.0) | glucose absorption activity of adipocytes 3T3-L1 (anti-hyperglycemic ability) (3T3-L1 adipocytes [2]; 30 μg/ml) | also measured
1 | COc1ccc(/C=C/C(=O)c2ccccc2O)cc1 [Compound 1, (E)-1-(2-hydroxyphenyl)-3-(4-methoxyphenyl)prop-2-en-1-one] | non-toxic | 283 ± 21.4 mg/dL |  | 
2 | O=C(/C=C/c1ccccc1)c1ccc(O)cc1O [Compound 2, (E)-1-(2,4-dihydroxyphenyl)-3-phenylprop-2-en-1-one] | lead to adipocyte death; also recorded: toxic | 273 ± 2.9 mg/dL | not significantly better than that in compound 9 | 
3 | O=C(/C=C/c1ccc(OCc2ccccc2)cc1)c1ccc(O)cc1O [Compound 3, (E)-3-(4-(benzyloxy)phenyl)-1-(2,4-dihydroxyphenyl)prop-2-en-1-one] | lead to adipocyte death; also recorded: toxic | 249 ± 12.2 mg/dL | not significantly better than that in compound 9 | 
4 | COc1cccc(/C=C/C(=O)c2ccccc2O)c1 [Compound 4, (E)-1-(2-hydroxyphenyl)-3-(3-methoxyphenyl)prop-2-en-1-one] | non-toxic | 264 ± 7.8 mg/dL |  | 
5 | COc1ccc(/C=C/C(=O)c2ccc(O)cc2O)cc1 [Compound 5, (E)-1-(2,4-dihydroxyphenyl)-3-(4-methoxyphenyl)-prop-2-en-1-one] | lead to adipocyte death; also recorded: toxic | 248 ± 0.4 mg/dL | not significantly better than that in compound 9 | 
6 | COc1cccc(/C=C/C(=O)c2ccc(O)cc2O)c1 [Compound 6, (E)-1-(2,4-dihydroxyphenyl)-3-(3-methoxyphenyl)-prop-2-en-1-one] | lead to adipocyte death; also recorded: toxic | 274 ± 12.1 mg/dL | not significantly better than that in compound 9 | 
7 | O=C(/C=C/c1ccccc1)c1ccccc1 [Compound 9, (E)-chalcone] | non-toxic | 253 ± 9.9 mg/dL | relatively similar | 
8 | COc1ccc(/C=C/C(=O)c2ccccc2Br)cc1 [Compound 12, (E)-1-(2-bromophenyl)-3-(4-methoxyphenyl)prop-2-en-1-one] | didn't result in adipocyte death |  | best anti-hyperglycemic ability; also recorded: best activity | fasting blood glucose level (C57BL/6 mice [3]): significantly inhibit the increase of blood glucose level; also recorded: inhibition of the blood glucose level; glucose intolerance (OGTT) (C57BL/6 mice [4]; HF diet mice, oral 6.75 mg/kg/day, FIG. 3(b), 6.75 mg/kg/day): significantly inhibit the occurrence of glucose intolerance; also recorded: inhibition of glucose intolerance; body weight gain (C57BL/6 mice [5]; oral dosage 6.75 mg/kg/day, FIG. 2): significantly inhibit the body weight gain; also recorded: inhibited; formation of lipid droplets (3T3-L1 adipocytes [6]): significantly prevent the formation of lipid droplets
9 | COc1ccc(/C=C/C(=O)c2ccccc2I)cc1 [Compound 26, (E)-1-(2-iodophenyl)-3-(4-methoxyphenyl)prop-2-en-1-one] | didn't result in adipocyte death |  | best anti-hyperglycemic ability | glucose intolerance / insulin resistance (C57BL/6 mice [4]; HF diet C57BL/6 mice, oral dosage 6.75 or 33.75 mg/kg/day, FIG. 6): significantly prevents obesity and insulin resistance; also recorded: inhibition of glucose intolerance; body weight / obesity (C57BL/6 mice [5]; oral dosage 6.75 or 33.75 mg/kg/day, FIG. 5): significantly prevents obesity; also recorded: inhibited; formation of lipid droplets (3T3-L1 adipocytes [6]): significantly prevent the formation of lipid droplets
10 | O=C(/C=C/c1ccccc1)c1cccc(I)c1 [Compound 55, (E)-1-(3-iodophenyl)-3-phenylprop-2-en-1-one] |  | 294 ± 7.3 mg/dL |  | 
11 | COc1ccc(/C=C/C(=O)c2cccc(I)c2)cc1 [Compound 56, (E)-1-(3-iodophenyl)-3-(4-methoxyphenyl)prop-2-en-1-one] |  | 233 mg/dL and 233 ± 3.5 mg/dL |  | 
12 | COc1cccc(/C=C/C(=O)c2cccc(I)c2)c1 [Compound 57, (E)-1-(3-iodophenyl)-3-(3-methoxyphenyl)prop-2-en-1-one] |  | 246 ± 11.3 mg/dL |  | 
13 | O=C(/C=C/c1ccccc1)c1ccc(I)cc1 [Compound 58, (E)-1-(4-iodophenyl)-3-phenylprop-2-en-1-one] |  | 292 ± 5.3 mg/dL |  | 
14 | COc1ccc(/C=C/C(=O)c2ccc(I)cc2)cc1 [Compound 59, (E)-1-(4-iodophenyl)-3-(4-methoxyphenyl)prop-2-en-1-one] |  | 299 ± 3.8 mg/dL |  | 
15 | COc1cccc(/C=C/C(=O)c2ccc(I)cc2)c1 [Compound 60, (E)-1-(4-iodophenyl)-3-(3-methoxyphenyl)prop-2-en-1-one] |  | 274 ± 22.5 mg/dL |  | 
16 | CCc1ccc(CCOc2ccc(CC3SC(=O)NC3=O)cc2)nc1 (stereo not shown) [Pioglitazone, pioglitazone, reference compound] |  | 230 ± 13.5 mg/dL |  | remaining glucose concentration in culture medium after 24 hours (3T3-L1 adipocytes [2]; 30 μg/ml, control 310 ± 4.0, listed as pioglitazone): 230 mg/dL
17 | CN(CCOc1ccc(CC2SC(=O)NC2=O)cc1)c1ccccn1 (stereo not shown) [Rosiglitazone, rosiglitazone, reference compound] |  | 263 ± 23.9 mg/dL |  | remaining glucose concentration in culture medium after 24 hours (3T3-L1 adipocytes [2]; 30 μg/ml, control 310 ± 4.0, listed as rosiglitazone): 263 mg/dL
18 | Insulin: insulin, positive control in the adipocyte tests |  |  |  | glucose consumption (3T3-L1 adipocytes [2]; Experiment 6, insulin 3.2×10^−7 M, RSZ, PIO 30 μg/ml, DMEM 25 mM D-glucose): promote glucose consumption; remaining glucose concentration in culture medium after 24 hours (3T3-L1 adipocytes [2]; insulin 3.2 × 10^−17M): 294 ± 6.3 mg/dL; formation of lipid droplets (3T3-L1 adipocytes [6]): increase the lipid droplets in adipocytes
